Experimental data taken from ChEMBL document CHEMBL4145551, “Mitochondria-targeting indolizino[3,2-c]quinolines as novel class of photosensitizers for photodynamic anticancer activity” (Eur J Med Chem, 2018).
The source made the active and inactive calls. The rule behind the calls is not given here.

What was measured:
[1] = Dark toxicity in human HeLa cells assessed as morphological changes at 10 uM measured after 14 hrs by propidium iodide staining based fluorescence microscopic method; format: cell-based
[2] = Drug uptake in human MCF7 cell mitochondria at 10 uM incubated for 1 to 2 hrs under 488 nanometer laser light irradiation by confocal microscopic method; format: ADME; conditions: mcf7, 10 µM
HeLa [3] = experiment: Photocytotoxicity against human HeLa cells assessed as cell shrinkage at 5 uM preincubated for 1 hr followed by blue LED light irradiation for 10 to 30 mins and measured after 2.5 hrs by holotomographic method; format: functional, cell-based
HeLa [4] = experiment: Photocytotoxicity against human HeLa cells assessed as induction of mitochondrial membrane potential depolarization at 10 uM preincubated for 1 hr followed by blue LED light irradiation for 5 mins by TMRE staining based confocal microscopic method; format: functional, cell-based
HeLa [5] = experiment: Photocytotoxicity against human HeLa cells assessed as membrane protrusion at 20 uM preincubated for 1 hr followed by blue LED light irradiation for 10 mins and measured after 2.5 hrs by holotomographic method; format: functional, cell-based
HeLa [6] = experiment: Photocytotoxicity against human HeLa cells assessed as cell rounding at 5 uM preincubated for 1 hr followed by blue LED light irradiation for 10 to 30 mins and measured after 2.5 hrs by holotomographic method; format: functional, cell-based
DNA [7] = experiment: Binding affinity to Escherichia coli pBR322 DNA assessed as increase in test compound fluorescence up to 10 uM after 30 mins under blue LED light irradiation relative to control; format: nucleic-acid assay
[8] = Drug uptake in human HeLa cell mitochondria at 10 uM after 1 hr by mitotracker red staining based confocal laser scanning microscopic method; format: ADME
HeLa [9] = experiment: Photocytotoxicity against human HeLa cells assessed as increase in cleaved PARP protein expression preincubated for 1 hr followed by blue LED light irradiation for 10 mins and measured after 18 hrs by Western blot analysis; format: functional, cell-based
[10] = Drug uptake in human HeLa cell cytoplasm at 10 uM after 1 hr by mitotracker red staining based confocal laser scanning microscopic method; format: ADME, subcellular
HeLa [11] = experiment: Photocytotoxicity against human HeLa cells assessed as induction of mitochondrial damage by measuring mitochondrial swelling at 10 uM preincubated for 1 hr followed by 488 nanometer laser light irradiation up to 6 mins by mitotracker red staining based confocal laser scanning microscopic method; format: functional, cell-based
[12] = Dark toxicity in human MCF7 cells assessed as reduction in cell viability up to 10 uM measured after 24 hrs by MTT assay; format: cell-based; conditions: mcf7, 24 h
HeLa [13] = experiment: Photocytotoxicity against human HeLa cells assessed as cell membrane blebbing at 10 uM preincubated for 1 hr followed by blue LED light irradiation for 5 mins by differential interference contrast imaging analysis; format: functional, cell-based
DNA [14] = experiment: Induction of Escherichia coli pBR322 DNA cleavage irradiated with blue LED light after 30 mins by agarose gel electrophoresis method; format: nucleic-acid assay
HeLa [15] = experiment: Photocytotoxicity against human HeLa cells assessed as plasma membrane blebbing up to 10 uM preincubated for 1 hr followed by blue LED light irradiation for 5 mins and measured after 13 hrs by Hoechst 33258 staining based fluorescence microscopic method; format: functional, cell-based
DNA [16] = experiment: Binding affinity to Escherichia coli pBR322 DNA assessed as increase in test compound fluorescence after 30 mins under blue LED light irradiation; format: nucleic-acid assay
MCF7 = experiment: Photocytotoxicity against human MCF7 cells assessed as reduction in cell viability preincubated for 1 hr followed blue LED light irradiation for 5 mins and measured after 24 hrs by MTT assay; format: functional, cell-based
Calf thymus DNA = experiment: Binding affinity to calf thymus DNA assessed as red shift in absorption maxima; format: nucleic-acid assay; conditions: Bos taurus

- Drug uptake [2]: Active
- fold change (FC) (DNA [7]): < 4
- Drug uptake [8]: Active
- Drug uptake [10]: Active
- Activity (DNA [14]): Dose-dependent effect
- Activity (DNA [16]): Dose-dependent effect
- Activity (Calf thymus DNA): 57 nm
SMILES: Cc1cccn2c1cc1c3ccccc3nc(-c3ccco3)c12
- Activity [1]: Non-Toxic
- Activity (HeLa [3]): Active
- Activity (HeLa [4]): Active
- Activity (HeLa [5]): Active
- Activity (HeLa [6]): Active
- Activity (HeLa [9]): Dose-dependent effect
- Activity (HeLa [11]): Active
- Activity [12]: Non-Toxic
- Activity (HeLa [13]): Active
- Activity (HeLa [15]): Active
- Activity (MCF7): Dose-dependent effect
- IC50 (MCF7; MCF7, light or radiation study): 2390 nM
